Laboratory results as given in US20130030048A1, “COMPOSITION FOR INDUCING MULTIPLE NUCLEAR DIVISION OF CELLS” (priority 2010, published 2013).

Tested on: Human Mammary Epithelial (HME) 50 HT cell line
Assay: Multiple nuclear divisions in cultured HME 50 HT cells
Type: cell-based
Details: HME 50 HT cells in serum-free medium; FIGS. 3 and 4
Method: Such a culture medium was treated with the composition comprising the compound of formula II obtained in the Example 1 and the compound of formula III obtained in the Examples 2 to 5, respectively.
And, it was found from the photomicrographs that the cells appeared very healthy and unstressed.

Structure (SMILES): CCC1(N)C(=O)COC=C1C (centres unmarked) [compound of formula III]
- multiple nuclear divisions in the cell (stained-cell image): multiple nuclear divisions occurred in the cell

Structure (SMILES): C=CC1(N)C(=O)COC=C1C (centres unmarked) [compound of formula II]
- multiple nuclear divisions in the cell (stained-cell image): multiple nuclear divisions occurred in the cell
